Measured values reported in PubChem BioAssay AID1963869 (Molecular Pharmacology Branch, DTP, NCI, 2024).

System: KRAS patient-derived spheroids with HUVEC/MSC, viability
Test: Anticancer human tumor 323965-272-R-J2-PDC patient-derived pancreatic carcinoma cell line growth inhibition [KRAS2]
Settings: for viability, T/C: stronger effect = lower value
Method in brief: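 Combination screen of spheroid viability in tumor-cell co-cultures with endothelial (HUVEC) and mesenchymal stem cell stroma. Each agent was tested in half-log dilutions, topping at clinical Cmax or at 10 microM without a known Cmax.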

[1] = curve of first compound, second compound 0.1 µM
[2] = curve of first compound, second compound 0.316 µM
[3] = curve of first compound, second compound 1 µM
[4] = curve of first compound, second compound 3.16 µM
[5] = curve of first compound, second compound 10 µM
[6] = second compound 0.1 µM, first compound 0.01 µM
[7] = second compound 0.1 µM, first compound 0.0316 µM
[8] = second compound 0.1 µM, first compound 0.1 µM
[9] = second compound 0.1 µM, first compound 0.316 µM
[10] = second compound 0.1 µM, first compound 1 µM
[11] = second compound 0.1 µM, first compound 3.16 µM
[12] = second compound 0.316 µM, first compound 0.01 µM
[13] = second compound 0.316 µM, first compound 0.0316 µM
[14] = second compound 0.316 µM, first compound 0.1 µM
[15] = second compound 0.316 µM, first compound 0.316 µM
[16] = second compound 0.316 µM, first compound 1 µM
[17] = second compound 0.316 µM, first compound 3.16 µM
[18] = second compound 1 µM, first compound 0.01 µM
[19] = second compound 1 µM, first compound 0.0316 µM
[20] = second compound 1 µM, first compound 0.1 µM
[21] = second compound 1 µM, first compound 0.316 µM
[22] = second compound 1 µM, first compound 1 µM
[23] = second compound 1 µM, first compound 3.16 µM
[24] = second compound 3.16 µM, first compound 0.01 µM
[25] = second compound 3.16 µM, first compound 0.0316 µM
[26] = second compound 3.16 µM, first compound 0.1 µM
[27] = second compound 3.16 µM, first compound 0.316 µM
[28] = second compound 3.16 µM, first compound 1 µM
[29] = second compound 3.16 µM, first compound 3.16 µM
[30] = second compound 10 µM, first compound 0.01 µM
[31] = second compound 10 µM, first compound 0.0316 µM
[32] = second compound 10 µM, first compound 0.1 µM
[33] = second compound 10 µM, first compound 0.316 µM
[34] = second compound 10 µM, first compound 1 µM
[35] = second compound 10 µM, first compound 3.16 µM
[36] = second compound 0.1 µM, first compound 0.000316 µM
[37] = second compound 0.1 µM, first compound 0.001 µM
[38] = second compound 0.1 µM, first compound 0.00316 µM
[39] = second compound 0.316 µM, first compound 0.000316 µM
[40] = second compound 0.316 µM, first compound 0.001 µM
[41] = second compound 0.316 µM, first compound 0.00316 µM
[42] = second compound 1 µM, first compound 0.000316 µM
[43] = second compound 1 µM, first compound 0.001 µM
[44] = second compound 1 µM, first compound 0.00316 µM
[45] = second compound 3.16 µM, first compound 0.000316 µM
[46] = second compound 3.16 µM, first compound 0.001 µM
[47] = second compound 3.16 µM, first compound 0.00316 µM
[48] = second compound 0.1 µM, first compound 10 µM
[49] = second compound 0.316 µM, first compound 10 µM
[50] = second compound 1 µM, first compound 10 µM
[51] = second compound 3.16 µM, first compound 10 µM
[52] = second compound 10 µM, first compound 10 µM
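Further: spheroids exposed to agents for 7 days.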
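Wherever viability, T/C is given: 100% = DMSO vehicle control viability.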

CC1COCCN1c1cc(-c2ccnn2C)c2ccnc(-c3ccn[nH]3)c2n1 (centres undefined) + CC1OCC2(CCN(c3cnc(Sc4ccnc(N)c4Cl)c(N)n3)CC2)C1N
IC50 [1]: 15.3 nM
IC50 [2]: < 10 nM
IC50 [3]: < 10 nM
IC50 [4]: < 10 nM
IC50 [5]: < 10 nM
viability, T/C [6]: 60.7%
viability, T/C [7]: 32.2%
viability, T/C [8]: 17.7%
viability, T/C [9]: 15%
viability, T/C [10]: 13.5%
viability, T/C [11]: 12.9%
viability, T/C [12]: 43.1%
viability, T/C [13]: 23.2%
viability, T/C [14]: 12.3%
viability, T/C [15]: 10.7%
viability, T/C [16]: 10.5%
viability, T/C [17]: 9.88%
viability, T/C [18]: 35.1%
viability, T/C [19]: 13%
viability, T/C [20]: 7.36%
viability, T/C [21]: 6.29%
viability, T/C [22]: 5.53%
viability, T/C [23]: 3.23%
viability, T/C [24]: 13.3%
viability, T/C [25]: 7.07%
viability, T/C [26]: 4.72%
viability, T/C [27]: 4.25%
viability, T/C [28]: 2.21%
viability, T/C [29]: 2.21%
viability, T/C [30]: 7.99%
viability, T/C [31]: 5.12%
viability, T/C [32]: 4.05%
viability, T/C [33]: 3.27%
viability, T/C [34]: 1.9%
viability, T/C [35]: 1.31%

CC(C)n1nc(-c2ccc3oc(N)nc3c2)c2c(N)ncnc21 + CC1OCC2(CCN(c3cnc(Sc4ccnc(N)c4Cl)c(N)n3)CC2)C1N
IC50 [1]: 1.23 nM
IC50 [2]: < 0.316 nM
IC50 [3]: < 0.316 nM
IC50 [4]: < 0.316 nM
IC50 [5]: < 0.316 nM
viability, T/C [36]: 77%
viability, T/C [37]: 52.3%
viability, T/C [38]: 36.2%
viability, T/C [6]: 26.7%
viability, T/C [7]: 18.1%
viability, T/C [8]: 13.7%
viability, T/C [39]: 46.2%
viability, T/C [40]: 42.1%
viability, T/C [41]: 31.8%
viability, T/C [12]: 21%
viability, T/C [13]: 12.4%
viability, T/C [14]: 5.7%
viability, T/C [42]: 47.9%
viability, T/C [43]: 35.9%
viability, T/C [44]: 26.8%
viability, T/C [18]: 15.6%
viability, T/C [19]: 7.51%
viability, T/C [20]: 2.03%
viability, T/C [45]: 36.2%
viability, T/C [46]: 27%
viability, T/C [47]: 21.4%
viability, T/C [24]: 10.4%
viability, T/C [25]: 4.33%
viability, T/C [26]: 1.32%
viability, T/C (second compound 10 µM, first compound 0.000316 µM): 28.1%
viability, T/C (second compound 10 µM, first compound 0.001 µM): 22.7%
viability, T/C (second compound 10 µM, first compound 0.00316 µM): 15.6%
viability, T/C [30]: 6.84%
viability, T/C [31]: 1.96%
viability, T/C [32]: 0.92%

CC(=O)OC12COC1CC(O)C1(C)C(=O)C(O)C3=C(C)C(OC(=O)C(O)C(NC(=O)OC(C)(C)C)c4ccccc4)CC(O)(C(OC(=O)c4ccccc4)C21)C3(C)C (centres undefined)
viability, T/C (compound 0.01 µM): 35.9% [middle of 5 runs]
viability, T/C (compound 0.0316 µM): 35.4% [middle of 5 runs]
viability, T/C (compound 0.1 µM): 32.5% [middle of 5 runs]
viability, T/C (compound 0.316 µM): 36.5% [middle of 5 runs]
viability, T/C (compound 1 µM): 34% [middle of 5 runs]
viability, T/C (compound 3.16 µM): 34.3% [middle of 5 runs]
IC50 (curve of compound): < 10 nM

CCNC(=O)CC1N=C(c2ccc(Cl)cc2)c2cc(OC)ccc2-n2c(C)nnc21 (centres undefined)
viability, T/C (compound 0.0316 µM): 97.2% [middle of 5 runs]
viability, T/C (compound 0.1 µM): 83.4% [middle of 5 runs]
viability, T/C (compound 0.316 µM): 62.2% [middle of 5 runs]
viability, T/C (compound 1 µM): 44.5% [middle of 5 runs]
viability, T/C (compound 3.16 µM): 39.8% [middle of 5 runs]
viability, T/C (compound 10 µM): 36.7% [middle of 5 runs]
IC50 (curve of compound): 798 nM [middle of 5 runs]

CCNC(=O)CC1N=C(c2ccc(Cl)cc2)c2cc(OC)ccc2-n2c(C)nnc21 (centres undefined) + CNCc1ccccc1-c1csc(C(C)Nc2nc(C)nc3cc(OC)c(OC)cc23)c1
IC50 [1]: 370 nM
IC50 [2]: 332 nM
IC50 [3]: 466 nM
IC50 [4]: 436 nM
IC50 [5]: < 31.6 nM
viability, T/C [7]: 94.1%
viability, T/C [8]: 75.7%
viability, T/C [9]: 51.9%
viability, T/C [10]: 38.5%
viability, T/C [11]: 33.7%
viability, T/C [48]: 33.5%
viability, T/C [13]: 87.2%
viability, T/C [14]: 77.7%
viability, T/C [15]: 50.3%
viability, T/C [16]: 36.4%
viability, T/C [17]: 34.5%
viability, T/C [49]: 31.6%
viability, T/C [19]: 94.8%
viability, T/C [20]: 80.2%
viability, T/C [21]: 54.8%
viability, T/C [22]: 40.1%
viability, T/C [23]: 34.2%
viability, T/C [50]: 32.4%
viability, T/C [25]: 98.9%
viability, T/C [26]: 80.7%
viability, T/C [27]: 55.4%
viability, T/C [28]: 36.3%
viability, T/C [29]: 26.2%
viability, T/C [51]: 24.1%
viability, T/C [31]: 0.5%
viability, T/C [32]: 0.19%
viability, T/C [33]: 0.17%
viability, T/C [34]: 0.15%
viability, T/C [35]: 0.21%
viability, T/C [52]: 0.3%

CC1(C)CCC(CN2CCN(c3ccc(C(=O)NS(=O)(=O)c4ccc(NCC5CCOCC5)c([N+](=O)[O-])c4)c(Oc4cnc5[nH]ccc5c4)c3)CC2)=C(c2ccc(Cl)cc2)C1 + COc1cc2nc(C)nc(NC(C)c3cc(N)cc(C(F)(F)F)c3)c2cc1OC1CCOC1
IC50 [1]: 1520 nM
IC50 [2]: 1570 nM
IC50 [3]: 1290 nM
IC50 [4]: 1340 nM
IC50 [5]: 591 nM
viability, T/C [7]: 76.6%
viability, T/C [8]: 80.4%
viability, T/C [9]: 67.8%
viability, T/C [10]: 72.2%
viability, T/C [11]: 11.2%
viability, T/C [48]: 2.78%
viability, T/C [13]: 67.7%
viability, T/C [14]: 77.3%
viability, T/C [15]: 75.2%
viability, T/C [16]: 71.5%
viability, T/C [17]: 16.8%
viability, T/C [49]: 3.87%
viability, T/C [19]: 76.2%
viability, T/C [20]: 84.2%
viability, T/C [21]: 84.3%
viability, T/C [22]: 60.3%
viability, T/C [23]: 12.5%
viability, T/C [50]: 2.67%
viability, T/C [25]: 87.4%
viability, T/C [26]: 80.6%
viability, T/C [27]: 84.7%
viability, T/C [28]: 65.1%
viability, T/C [29]: 6.04%
viability, T/C [51]: 2.28%
viability, T/C [31]: 80.7%
viability, T/C [32]: 79.9%
viability, T/C [33]: 61.1%
viability, T/C [34]: 41.6%
viability, T/C [35]: 3.41%
viability, T/C [52]: 1.41%

Cn1ncnc1[C@H]1c2n[nH]c(=O)c3cc(F)cc(c23)N[C@@H]1c1ccc(F)cc1 + C=CC(=O)N1CCN(c2nc(OCC3CCCN3C)nc3c2CCN(c2cccc4cccc(C)c24)C3)CC1CC#N
IC50 (curve of first compound, second compound 0.0316 µM): > 100 nM
IC50 [1]: > 100 nM
IC50 [2]: > 100 nM
IC50 [3]: > 100 nM
IC50 [4]: < 0.316 nM
viability, T/C (second compound 0.0316 µM, first compound 0.000316 µM): 75.5%
viability, T/C (second compound 0.0316 µM, first compound 0.001 µM): 83.2%
viability, T/C (second compound 0.0316 µM, first compound 0.00316 µM): 73.7%
viability, T/C (second compound 0.0316 µM, first compound 0.01 µM): 71.2%
viability, T/C (second compound 0.0316 µM, first compound 0.0316 µM): 68.7%
viability, T/C (second compound 0.0316 µM, first compound 0.1 µM): 64%
viability, T/C [36]: 71.2%
viability, T/C [37]: 62.3%
viability, T/C [38]: 62%
viability, T/C [6]: 61.5%
viability, T/C [7]: 60.5%
viability, T/C [8]: 53.8%
viability, T/C [39]: 64.2%
viability, T/C [40]: 63.8%
viability, T/C [41]: 62.7%
viability, T/C [12]: 60.4%
viability, T/C [13]: 56.1%
viability, T/C [14]: 57.7%
viability, T/C [42]: 58.6%
viability, T/C [43]: 65.5%
viability, T/C [44]: 59.6%
viability, T/C [18]: 62.6%
viability, T/C [19]: 52.8%
viability, T/C [20]: 57%
viability, T/C [45]: 12.5%
viability, T/C [46]: 10.9%
viability, T/C [47]: 13.9%
viability, T/C [24]: 11.5%
viability, T/C [25]: 12.4%
viability, T/C [26]: 11.6%
